Results as given in patent US20210145801A1, “THERAPY FOR PROTEIN MISFOLDING DISEASE” (WREN THERAPEUTICS LIMITED, priority 2018, published 2021).
Entries after “also recorded” stand apart in the source; their conditions may differ. Like-named read-outs stand apart in the source and are kept apart here.

What was measured:
Aβ42 fibrils = biological target: T1, Aβ42 fibrils (Homo sapiens, UniProt P05067); test: Dot blot assay with fibril-specific OC antibody; format: biochemical; conditions: 2 μM Aβ42; 5-fold excess of compound; eight time points
T1 construct: made in house; host or cells: E. coli BL21 Gold (DE3)
Description: Blotting was performed using Aβ42 fibril-specific antibody (OC, Millipore). During the time course of the aggregation of a 2 μM Aβ42 in the absence and in the presence of 5-fold excess of Netoglitazone, 4 μL Aβ42 aliquots were removed from the mixture at different time points for blotting with OC. Aβ42 aliquots were spotted onto a nitrocellulose membrane (0.2 μm, Whatman) and then the membranes were dried and then blocked with Blocking One (Nacalai tesque) before immuno-detection. OC was used according to the manufacturer's instructions. Alexa Fluor® 488-conjugated secondary antibodies (Life technologies) were subsequently added and fluorescence detection was performed using Typhoon Trio Imager (GE Healthcare).

Aβ42 = biological target: T2, Aβ42 (Homo sapiens, UniProt P05067); test: Seeded Aβ42 aggregation kinetics (2% or 50% preformed fibril seeds); format: biochemical; conditions: 2 μM Aβ42; 50% seeds; up to 20-fold excess
T2 construct: made in house; host or cells: E. coli BL21 Gold (DE3)
Description: For the seeded experiments, preformed fibrils were prepared just prior to the experiment. Kinetic experiments were set up as described above for 5 μM Aβ42 samples in 20 mM sodium phosphate buffer, pH 8 with […] EDTA, 0.02% NaN3 and 20 μM ThT. The ThT fluorescence was monitored for 3 hours to verify the formation of fibrils. Samples were then collected from the wells into low-binding tubes. Under the considered conditions (i.e. 5 μM Aβ42), the monomer concentration is negligible at equilibrium. The final concentration of fibrils, in monomer equivalents, was considered equal to the initial concentration of monomer. Fibrils were then added to freshly prepared monomer in order to reach either 2% or 50% final concentration of seeds in the absence or the presence of Netoglitazone.
Inhibitors can interfere with the aggregation process by inhibiting one or more of the individual microscopic steps. […]

Aβ40 = biological target: T3, Aβ40 (Homo sapiens, UniProt P05067); test: Aβ40 aggregation kinetics; format: biochemical; conditions: 10 μM Aβ40; 1.25-fold excess
T3 construct: similar kinetics experiments were performed on the 40-residue isoform, Aβ40
Description: For the experiments monitoring Aβ40 aggregation kinetics, the experiments were performed similarly to those described above for Aβ42 at a concentration of 10 μM of Aβ40 in the absence or presence of 1.25-fold excess of Netoglitazone.

[1] = tested on: Aβ1-42Neur worms (CL2355); test: Chemotaxis assay in Aβ1-42Neur worms; format: in vivo, C. elegans; conditions: 5 μM; 5 days at 24° C.; day 6 of adulthood
Description: Chemotaxis measurements were carried out as previously described (O. Margie, C. Palmer, I. Chin-Sang, C. elegans Chemotaxis Assay. J Vis Exp, e50069 (2013)) and as illustrated in FIG. 6C. Briefly, adult synchronized transgenic C. elegans CL2355 worms and wild-type healthy worms were incubated with or without 5 μM Netoglitazone for 5 days 24° C. At day 6 of adulthood the worms were then collected, washed with M9 buffer three times, and assayed in 9 cm screening plates (1.9% agar, 1 mM CaCl2), 1 mM MgSO4, and 25 mM phosphate buffer, pH 6.0) seeded with 50 μl of a 10× culture of Op50 Bacteria or sterile water, as attractant or test conditions, respectively and in combination with 1 μl of 1M Levamisole. Ca. 200 worms were placed in the central quadrant of the plate and incubated at 24° C. for 8 h, after which the chemotaxis index (CI) was scored. The CI was defined as follows (O. Margie et al (2013)):
(number of worms at the attractant locations−number of worms at the control locations)/total number of worms on the plate
Worms that were remaining in the central quadrant were excluded.

[2] = Brain microdialysis time course study (striatum); format: in vivo, male C57BL/6 mice; conditions: 15 mg/kg po; for Netoglitazone (ng/ml) in microdialysate / Netoglitazone (ng/ml) corrected for recovery: striatum; for Netoglitazone (ng/ml) corrected for recovery: recovery 0.11; for concentration at 6 h: terminal sample shortly after 6 hours
Description: To further assess the free drug exposure in the CNS following dosing of Netoglitazone an in vivo surgical microdialysis time course study was performed. Microdialysis is a minimally-invasive sampling technique that is used for continuous measurement of free, unbound analyte concentrations in the extracellular fluid of virtually any tissue (e.g. ISF in the brain). The microdialysis technique requires the insertion of a small microdialysis catheter (also referred to as microdialysis probe) into the tissue of interest. The microdialysis probe is designed to mimic a blood capillary and consists of a shaft with a semipermeable hollow fiber membrane at its tip, which is connected to inlet and outlet tubing. The probe is continuously perfused with an aqueous solution (perfusate) that closely resembles the (ionic) composition of the surrounding tissue fluid at a low flow rate of approximately 0.1-5 μL/min. Once inserted into the tissue or (body)fluid of interest, small solutes can cross the semipermeable membrane by passive diffusion. The direction of the analyte flow is determined by the respective concentration gradient and allows the usage of microdialysis probes as sampling as well as delivery tools. The solution leaving the probe (dialysate) is collected at certain time intervals for analysis. It is widely recognised as the ‘gold standard’ technique for measuring free drug levels in the CNS. Briefly, 3 male C57BL/6 mice (18 weeks old) were surgically prepared with one cannula in the brain to allow for microdialysis sampling from the striatum. Animals were allowed one day to recover and then habituated to the microdialysis cages overnight. On the study day, a microdialysis probe was inserted through the implanted cannula. […] At the end of the experiment animals were anaesthetised and terminal blood and brain samples collected.

T2 sequence (P05067 671-713): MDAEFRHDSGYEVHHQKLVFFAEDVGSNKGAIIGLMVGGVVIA
T3 sequence (P05067 672-711 limits assumed): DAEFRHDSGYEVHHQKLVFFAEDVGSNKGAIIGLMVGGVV
T1 sequence (P05067 671-713): as the sequence (P05067 671-713) above

O=C1NC(=O)C(Cc2ccc3cc(OCc4ccccc4F)ccc3c2)S1 (stereo not drawn) [Netoglitazone]
Delay of Aβ42 fibril formation in dot-blot assay (Aβ42 fibrils): identical within experimental error to that observed in the ThT-based assay | Effect on aggregation kinetics / elongation (k+) with 50% preformed seeds (Aβ42): did not affect the aggregation kinetics; also recorded: does not affect the elongation rates of Aβ42 aggregation | Inhibition of Aβ40 aggregation (Aβ40): able to inhibit Aβ40 aggregation similarly to the 42-residue isoform | Chemotaxis index of Aβ1-42Neur worms [1]: chemotaxis index was significantly improved; also recorded: significantly improves the (A) chemotaxis index | Crossing of the blood-brain barrier after oral administration [2]: readily crosses the blood-brain barrier | First microdialysate fraction in which compound could be detected ([2]; post administration): 30 to 60 min | Netoglitazone (ng/ml) in microdialysate ([2]; 0-30 min after dose): <LLOQ | Netoglitazone (ng/ml) in microdialysate ([2]; 30-60 min after dose): 0.4 ng/mL | Netoglitazone (ng/ml) in microdialysate ([2]; 60-90 min after dose): 0.5 ng/mL | Netoglitazone (ng/ml) in microdialysate ([2]; 90-120 min after dose): 0.7 ng/mL | Netoglitazone (ng/ml) in microdialysate ([2]; 120-150 min after dose): 0.9 ng/mL | Netoglitazone (ng/ml) in microdialysate ([2]; 150-180 min after dose): 1.1 ng/mL | Netoglitazone (ng/ml) in microdialysate ([2]; 180-210 min after dose): 1.3 ng/mL | Netoglitazone (ng/ml) in microdialysate ([2]; 210-240 min after dose): 1.5 ng/mL | Netoglitazone (ng/ml) in microdialysate ([2]; 240-270 min after dose): 1.9 ng/mL | Netoglitazone (ng/ml) in microdialysate ([2]; 270-300 min after dose): 2.8 ng/mL | Netoglitazone (ng/ml) in microdialysate ([2]; 300-330 min after dose): 3.3 ng/mL | Netoglitazone (ng/ml) in microdialysate ([2]; 330-360 min after dose): 3.6 ng/mL | Netoglitazone (ng/ml) corrected for recovery ([2]; 0-30 min after dose): <LLOQ | Netoglitazone (ng/ml) corrected for recovery ([2]; 30-60 min after dose): 3.6 ng/mL | Netoglitazone (ng/ml) corrected for recovery ([2]; 60-90 min after dose): 4.5 ng/mL | Netoglitazone (ng/ml) corrected for recovery ([2]; 90-120 min after dose): 6.4 ng/mL | Netoglitazone (ng/ml) corrected for recovery ([2]; 120-150 min after dose): 8.2 ng/mL | Netoglitazone (ng/ml) corrected for recovery ([2]; 150-180 min after dose): 10.0 ng/mL | Netoglitazone (ng/ml) corrected for recovery ([2]; 180-210 min after dose): 11.8 ng/mL | Netoglitazone (ng/ml) corrected for recovery ([2]; 210-240 min after dose): 13.6 ng/mL | Netoglitazone (ng/ml) corrected for recovery ([2]; 240-270 min after dose): 17.3 ng/mL | Netoglitazone (ng/ml) corrected for recovery ([2]; 270-300 min after dose): 25.5 ng/mL | Netoglitazone (ng/ml) corrected for recovery ([2]; 300-330 min after dose): 30.0 ng/mL | Netoglitazone (ng/ml) corrected for recovery ([2]; 330-360 min after dose): 32.7 ng/mL | Kp at 6 h ([2]; male, C57BL/6, mouse, brain / plasma, terminal samples shortly after 6 hours, read-out: Brain:plasma ratio): 0.8 | concentration at 6 h ([2]; male, C57BL/6, mouse, plasma, read-out: Concentration in plasma): 13300 ng/mL | concentration at 6 h ([2]; male, C57BL/6, mouse, whole brain, read-out: Concentration in brain): 10300 ng/g
